Test results as given in patent US10499645B2, “Nematicidal aqueous suspension concentrate compositions” (Monsanto Technology LLC, priority 2012, dated 2019).

Columns and labels:
Format in all cases: physicochemical
[1] = Non-competitive slurry experiments (XRD); conditions: ambient temperature
Protocol: In addition to the solvent recrystallization experiments, non-competitive slurry experiments were performed to search for new solid-state forms of 3-phenyl-5-(thiophen-2-yl)-1,2,4-oxadiazole. These experiments rely on solubility differences of different polymorphic forms (if the compound exists in different polymorphic forms).
Essentially, when a solid is mixed with solvent to create slurry, a saturated solution eventually results. The solution is saturated with respect to the polymorphic form dissolved. […] In addition, noncompetitive slurry experiments are often useful in identifying solvents that form solvates with the compound.
The slurry experiments were performed by exposing excess supplied material to solvents and agitating the resulting suspensions for several days at ambient temperature. The solids were filtered using a WHATMAN Grade 1 apparatus (11 μm pore size) and analyzed by XRD to determine the resulting form(s). To avoid possible desolvation or physical change after isolation, the samples were not dried before X-ray analysis.

[2] = Grinding analysis (ball mill, XRD); conditions: ball mill 2 minutes at 4800 oscillations per minute
Protocol: Batches of 3-phenyl-5-(thiophen-2-yl)-1,2,4-oxadiazole polymorphic Forms I and II were ground using a CRESCENT WIG-L-BUG ball mill for 2 minutes at 4800 oscillations per minute (3.2 m/s) in two separate experiments. […] The Form II used in this experiment was obtained by recrystallization from the melt of Form I, as described in Example 14, above, […]

[3] = Mechanical pressure analysis (CARVER press, XRD); conditions: approximately 15,000 psi for approximately 20 seconds
Protocol: Batches of 3-phenyl-5-(thiophen-2-yl)-1,2,4-oxadiazole polymorphic Forms I and II were placed in a CARVER press and compressed at approximately 15,000 psi for approximately 20 seconds in two separate experiments. XRD analysis was performed on the samples. The resulting XRD pattern matched the starting material in both experiments, as shown in FIGS. 5A and 5B for Forms I and II, respectively. […] The Form II used in this experiment was obtained by recrystallization from the melt of Form I, as described in Example 14, above.

[4] = Storage stability of polymorphs (XRD)

| form resulting from slurry experiments (summary) ([1]; approximately 12 days of slurring) | polymorphic transformation on grinding [2] | form resulting from slurry experiments (summary) ([1]; approximately 7 days of slurring) | storage stability (XRD) ([4]; scintillation vial in a hood, ambient conditions, approximately 6 days) | SMILES | change of polymorphic form under pressure [3] | storage stability / hydrate formation (XRD) ([4]; 75 and 84% RH, ambient temperature, 4 weeks, open Petri dishes) |
| --- | --- | --- | --- | --- | --- | --- |
| Form I | no transformation |  |  | c1ccc(-c2noc(-c3cccs3)n2)cc1 [Form I, 3-phenyl-5-(thiophen-2-yl)-1,2,4-oxadiazole] | did not reveal any changes in the polymorphic form | does not form a hydrate and appears to be thermodynamically stable over time at ambient conditions |
|  | transformed to Form I | Form I | showed signs of transformation to Form I | c1ccc(-c2noc(-c3cccs3)n2)cc1 [Form II, 3-phenyl-5-(thiophen-2-yl)-1,2,4-oxadiazole] | did not reveal any changes in the polymorphic form |  |
